Source: US20110212909A1, “Use of Ginsenoside Compound K in the Preparation of a Medicament for the Prevention and Treatment of Atherosclerosis” (priority 2008, published 2011)
Marks after values point to notes of the source that are not given here.

Experiments:
MMP-9 mRNA = assay: Real-time quantitative PCR of MMP-9 mRNA in apo E−/− mouse aorta; format: in vivo; settings: apo E−/− mice, 15 weeks
Procedure: (§1) 80 healthy clean grade C57BL/6J apo E^−/^− mice of 10 weeks old, wherein male and female mice were fifty-fifty, weight 20-22 g, were breed and divided into individual cage in sterile laminar flow rack, allowing mice to freely drink water and get food. Mice were raised for 30 weeks by “Western Diet” (routine mouse feed +0.15% cholesterol +21% fat) high fat feed (^60cobalt sterilization radiation treatment), with raising conditions being SPF grade, room temperature maintained at 24° C., relative humidity of 50%, and lighting time of 7: 30-19: 30. Animal house was sterilized by ultraviolet lamp once every two days, in order to maintain sterile environment of laminar flow rack (establishment of animal model of atherosclerosis refers to reference: Barish G D, Atkins A R, Downes M, Olson P, Chong L W, Nelson M, Zou Y H, Hwang H S, Kang H J, Curtiss L, Evans R M, Lee C H. PPARδ regulates multiple proinflammatory pathways to suppress atherosclerosis. Proc Natl Acad Sci, 2008, 105 (11): 4271-4276.).
(§2) 5 mice of apo E^−/^− mice raised for 15 weeks were randomly selected and sacrificed, root of aorta of which was taken, and replication condition in AS model was observed by HE staining. The remaining mice were randomly divided into 5 groups as follows (n=15): […]
(§3) Above drugs were firstly solved in DMSO, then suspended in 0.5% carboxymethylcellulose solution, mixed homogeneously, and then were administered via gavage, once a day. Mice were weighted once a week, and ingestion amounts were recorded, and drug doses were adjusted according to weight, interfering for 15 weeks. […]
(§4) • blood fat assay: TC, TG, HDL-C, and LDL-C concentrations in serum were determined by applying Olympus Au2700 fully automatic biochemical appearance. • serum inflammatory markers assay: hs-CRP and sCD40L concentrations were determined by applying double antibody sandwich ELISA, in accordance with ELISA kit operating instruction (hs-CRP ELISA kit bought from Herrenberg company, Germany; sCD40L ELISA kit bought from Bender Medsystems company, Austria). • real-time quantitative PCR analysis was carried out on expression of CD36, perilipin, ABCA1, LXRα, MMP-9 and NF-κ B mRNA in apo E^−/^− mouse aorta (a reference method: Zhang Yiguan, Li Xiaohui, Fan Jishan, Zhang Haigang, Li Shuhui, Liao Wenqiang, Pang Yan, Jia Yi. […] 2007, 27 (11): 1601-1607)0 • morphology index image analysis: When slices were HE stained, under X40 fold ordinary light microscope, artery atherosclerosis plaque area of each incisal surface was determined by “Image Pro Plus 5.0” image analysis software. […] As to Masosn staining, aortic root collagen area (CA) was measured by “Image Pro Plus 5.0” image analysis software, and collagen vessel area ratio (CA/CVA) was calculated. […]

hs-CRP = assay: Serum hs-CRP by double antibody sandwich ELISA in apo E−/− mice; format: in vivo, mouse; settings: 15 weeks
Procedure: as §1, §2, §3
(§5) • blood fat assay: TC, TG, HDL-C, and LDL-C concentrations in serum were determined by applying Olympus Au2700 fully automatic biochemical appearance. • serum inflammatory markers assay: hs-CRP and sCD40L concentrations were determined by applying double antibody sandwich ELISA, in accordance with ELISA kit operating instruction (hs-CRP ELISA kit bought from Herrenberg company, Germany; sCD40L ELISA kit bought from Bender Medsystems company, Austria). • real-time quantitative PCR analysis was carried out on expression of CD36, perilipin, ABCA1, LXRα, MMP-9 and NF-κ B mRNA in apo E^−/^− mouse aorta (a reference method: Zhang Yiguan, Li Xiaohui, Fan Jishan, Zhang Haigang, Li Shuhui, Liao Wenqiang, Pang Yan, Jia Yi. […] 2007, 27 (11): 1601-1607)0 • morphology index image analysis: When slices were HE stained, under X40 fold ordinary light microscope, artery atherosclerosis plaque area of each incisal surface was determined by “Image Pro Plus 5.0” image analysis software. […]

CD36 mRNA = assay: Real-time quantitative PCR of CD36 mRNA in apo E−/− mouse aorta; format: in vivo; settings: apo E−/− mice, 15 weeks
Procedure: as §1, §2, §3, §4

apo E−/− mouse = assay: Blood fat assay in serum of apo E−/− mice on Western Diet; format: in vivo; settings: for HDL-C in serum / LDL-C in serum / TC in serum / TC-HDL/HDL / TG in serum: 15 weeks
Procedure: as §1
5 mice of apo E^−/^− mice raised for 15 weeks were randomly selected and sacrificed, root of aorta of which was taken, and replication condition in AS model was observed by HE staining. The remaining mice were randomly divided into 5 groups as follows (n=15):
A. model group: vehicle; B. ginsenoside compound K low dose group: ginsenoside compound K 12.5 mg/kg/day; C. ginsenoside compound K middle dose group: ginsenoside compound K 25.0 mg/kg/day; D. ginsenoside compound K high dose group: ginsenoside compound K 50.0 mg/kg/day; E. simvastatin control group: simvastatin 10.0 mg/kg/day.
Above drugs were firstly solved in DMSO, then suspended in 0.5% carboxymethylcellulose solution, mixed homogeneously, and then were administered via gavage, once a day. Mice were weighted once a week, and ingestion amounts were recorded, and drug doses were adjusted according to weight, interfering for 15 weeks. All the animal were sacrificed in 30th week.
apo E^−/^− mouse serum sample: apo E^−/^− mice were interfered by drug for 15 weeks, then were fasted for 12 hours before sampling. Before being sacrificed, mice were anesthetized by 0.5-1.0 mL 1% Pentobarbital via abdominal cavity, and under sterile condition, 1.5 mL blood form their eye sockets venous plexus was sampled, and centrifugated at 2500 r/min for 10 minutes, and then serum was separated, and frozen and stored at −80° C., for determining blood fat concentrations and inflammatory markers in serum.
• blood fat assay: TC, TG, HDL-C, and LDL-C concentrations in serum were determined by applying Olympus Au2700 fully automatic biochemical appearance. • serum inflammatory markers assay: hs-CRP and sCD40L concentrations were determined by applying double antibody sandwich ELISA, in accordance with ELISA kit operating instruction (hs-CRP ELISA kit bought from Herrenberg company, Germany; sCD40L ELISA kit bought from Bender Medsystems company, Austria). • real-time quantitative PCR analysis was carried out on expression of CD36, perilipin, ABCA1, LXRα, MMP-9 and NF-κ B mRNA in apo E^−/^− mouse aorta (a reference method: Zhang Yiguan, Li Xiaohui, Fan Jishan, Zhang Haigang, Li Shuhui, Liao Wenqiang, Pang Yan, Jia Yi. Total panax notoginsenosides suppress atherosclerosis formation in rats by means of antiinflammatory and blood fat regulating action. Progress in Modern Biomedicine. 2007, 27 (11): 1601-1607)0 • morphology index image analysis: When slices were HE stained, under X40 fold ordinary light microscope, artery atherosclerosis plaque area of each incisal surface was determined by “Image Pro Plus 5.0” image analysis software. Plaque area (PA), vessel cross section area (CVA), lipid core area (LCA), and minimal fibrous cap thickness (mFCT) were measured, and corrected plaque area (plaque area/vessel cross section area, PA/CVA) and corrected lipid core area (lipid core area/plaque area, LCA/PA) were calculated, and average of 4 incisal surfaces was taken for each sample. […]

ABCA1 mRNA = assay: Real-time quantitative PCR of ABCA1 mRNA in apo E−/− mouse aorta; format: in vivo; settings: apo E−/− mice, 15 weeks
Procedure: as §1, §2, §3, §4

sCD40L = assay: Serum sCD40L by double antibody sandwich ELISA in apo E−/− mice; format: in vivo, mouse; settings: 15 weeks
Procedure: as §1, §2, §3, §5

[1] = C-K high dose 50.0 mg/kg/day gavage
[2] = C-K middle dose 25.0 mg/kg/day gavage
[3] = simvastatin 10.0 mg/kg/day gavage

CC(C)=CCC[C@](C)(OC1OC(CO)C(O)C(O)C1O)C1CC[C@]2(C)C1[C@H](O)CC1[C@@]3(C)CC[C@H](O)C(C)(C)C3CC[C@]12C (stereo partly drawn) [C-K, 20-O-β-D-glucopyranosyl 20-(S)-protopanaxadiol]
expression of MMP-9 mRNA in aorta (relative concentrations) (MMP-9 mRNA; [1]): 0.67 ± 0.13^b
expression of MMP-9 mRNA in aorta (relative concentrations) (MMP-9 mRNA; C-K low dose 12.5 mg/kg/day gavage, model 1.15 ± 0.12): 0.87 ± 0.12^b
expression of MMP-9 mRNA in aorta (relative concentrations) (MMP-9 mRNA; [2]): 0.78 ± 0.11^b
hs-CRP concentration in serum (hs-CRP; [1]): 6.14 ± 0.29^a ng/mL
hs-CRP concentration in serum (hs-CRP; C-K low dose 12.5 mg/kg/day gavage, model 8.13 ± 0.51): 6.68 ± 0.54^a ng/mL
hs-CRP concentration in serum (hs-CRP; [2]): 6.49 ± 0.36^a ng/mL
expression of CD36 mRNA in aorta (relative concentrations) (CD36 mRNA; [1]): 0.31 ± 0.08^b
expression of CD36 mRNA in aorta (relative concentrations) (CD36 mRNA; C-K low dose 12.5 mg/kg/day gavage, model 1.12 ± 0.13): 0.54 ± 0.07^b
expression of CD36 mRNA in aorta (relative concentrations) (CD36 mRNA; [2]): 0.47 ± 0.08^b
action in regulating blood fat compared with simvastatin (apo E−/− mouse; C-K 12.5-50.0 mg/kg/day vs simvastatin 10.0 mg/kg/day): not as good as that of simvastatin
HDL-C in serum (apo E−/− mouse; [1]): 4.42 ± 1.06^a mmol/L
LDL-C in serum (apo E−/− mouse; [1]): 6.11 ± 1.18^a mmol/L
TC in serum (apo E−/− mouse; [1]): 20.48 ± 4.34^b mmol/L
TC-HDL/HDL (apo E−/− mouse; [1]): 3.63 ± 0.10^b
TG in serum (apo E−/− mouse; [1]): 2.19 ± 0.51^b mmol/L
TG in serum (apo E−/− mouse; C-K low dose 12.5 mg/kg/day gavage, model 2.65 ± 0.39): 2.32 ± 0.41^a mmol/L
HDL-C in serum (apo E−/− mouse; C-K low dose 12.5 mg/kg/day gavage, model 3.79 ± 1.17): 4.08 ± 1.32^a mmol/L
TC-HDL/HDL (apo E−/− mouse; C-K low dose 12.5 mg/kg/day gavage, model 5.24 ± 0.36): 4.34 ± 0.16^a
LDL-C in serum (apo E−/− mouse; C-K low dose 12.5 mg/kg/day gavage, model 6.99 ± 1.09): 6.45 ± 1.30^a mmol/L
TC in serum (apo E−/− mouse; C-K low dose 12.5 mg/kg/day gavage, model 23.59 ± 3.79): 21.79 ± 4.53^a mmol/L
HDL-C in serum (apo E−/− mouse; [2]): 4.12 ± 1.15^a mmol/L
LDL-C in serum (apo E−/− mouse; [2]): 6.34 ± 1.22^a mmol/L
TC in serum (apo E−/− mouse; [2]): 21.29 ± 4.44^a mmol/L
TC-HDL/HDL (apo E−/− mouse; [2]): 4.17 ± 0.13^b
TG in serum (apo E−/− mouse; [2]): 2.28 ± 0.32^a mmol/L
expression of ABCA1 mRNA in aorta (relative concentrations) (ABCA1 mRNA; [1]): 1.34 ± 0.13^b
expression of ABCA1 mRNA in aorta (relative concentrations) (ABCA1 mRNA; C-K low dose 12.5 mg/kg/day gavage, model 0.65 ± 0.18): 1.08 ± 0.15^b
expression of ABCA1 mRNA in aorta (relative concentrations) (ABCA1 mRNA; [2]): 1.19 ± 0.18^b
sCD40L concentration in serum (sCD40L; [1]): 5.19 ± 0.19^a ng/mL
sCD40L concentration in serum (sCD40L; C-K low dose 12.5 mg/kg/day gavage, model 6.15 ± 0.21): 5.51 ± 0.35^a ng/mL
sCD40L concentration in serum (sCD40L; [2]): 5.34 ± 0.32^a ng/mL

CCC(C)(C)C(=O)O[C@H]1C[C@@H](C)C=C2C=C[C@H](C)[C@H](CC[C@@H]3C[C@@H](O)CC(=O)O3)[C@H]21 [simvastatin, reference compound]
expression of MMP-9 mRNA in aorta (relative concentrations) (MMP-9 mRNA; [3]): 0.94 ± 0.14^a
hs-CRP concentration in serum (hs-CRP; [3]): 4.57 ± 0.68^b ng/mL
expression of CD36 mRNA in aorta (relative concentrations) (CD36 mRNA; [3]): 0.77 ± 0.11^a
HDL-C in serum (apo E−/− mouse; [3]): 3.80 ± 1.12 mmol/L
LDL-C in serum (apo E−/− mouse; [3]): 1.73 ± 1.36^b mmol/L
TC in serum (apo E−/− mouse; [3]): 13.62 ± 4.49^b mmol/L
TC-HDL/HDL (apo E−/− mouse; [3]): 2.58 ± 0.18^b
TG in serum (apo E−/− mouse; [3]): 1.34 ± 0.46^b mmol/L
expression of ABCA1 mRNA in aorta (relative concentrations) (ABCA1 mRNA; [3]): 0.78 ± 0.12^a
sCD40L concentration in serum (sCD40L; [3]): 4.59 ± 0.37^b ng/mL
